Results on one substance are retold here after patent publication US7714105B2, “Use of fragments of oxytocin for the preparation of a pharmaceutical composition in order to create eustasis” (priority 2001, dated 2010).

Common to all, as to type: in vivo, rat
The subject of one assay is Oxytocin. Put plainly: Plasma oxytocin determination by radioimmunoassay. Particulars: 1 mg/kg s.c. for five consecutive days, trunk blood four days after end of treatment, mean ± SD, in pmol/L. The protocol: (§1) Animals. Eight week-old male Sprague-Dawley rats (280-300 g) were obtained from B&K Universal AB, Sollentuna, Sweden.
(§2) Experimental procedure. SEQ ID NO: 5 was dissolved in physiological saline (1 mg/ml) and administered subcutaneously to six rats at a dose of 1 mg/kg for five consecutive days. Six rats received physiological saline only as a control. Two days after the last treatment, the rats were exposed to blood pressure determination with the cuff technique. The locomotor behaviour was studied three days after the end of the treatment. The next day the animals were decapitated and blood was collected.
(§3) Statistics. The results are presented as means ±SD. Statistical analysis was performed by means of 2-way ANOVA followed by Bonferroni's test for post hoc comparison. A Students t-test was performed. p-values of 0.05 or less were regarded as statistically significant.
Trunk blood was collected in ice-chilled tubes, containing heparin (10 IU/ml) (Pharmacia-Upjohn, Stockholm, Sweden) and aprotinin (500 IU/ml) (Trasylol, Bayer, Germany). […]
Oxytocin was measured with a specific radioimmunoassay developed in this laboratory (Stock, S., and Uvnäs-Moberg, K. (1988). Increased plasma levels of oxytocin in response to stimulation of the sciatic and vagal nerves and in response to touch and pinch in anaesthetized rats. Acta Physiol Scand 132, 29-34.). […]

The subject of assay [1] is male Sprague-Dawley rats. Put plainly: Locomotor activity observations in open-field arena. As to conditions: 1 mg/kg subcutaneously for five consecutive days, studied three days after end of treatment, vs saline control. The protocol:
as §1, §2, §3
Two identical frames of photocells were placed at two levels, 40 and 125 mm above the floor, respectively. The open-field was enclosed in a ventilated, sound-attenuating box with a Perspex top. Measurements were made in the dark and performed between 0.900-16.00 h.
The number of photocell beam interruptions were collected on an IBM-compatible PC computer allowing the registration of locomotor activity (all interruptions of photobeams at the lower level) and rearing (all interruptions of photobeams at the upper level). The data were subject to a square root transformation. For further details on the apparatus and the computer software used, including a schematic drawing of the equipment, see Ericson, E., Samuelsson, J., and Ahlenius, S. (1991). Photocell measurements of rat motor activity: A contribution to sensitivity and variation in behavioral observations. J Pharmacol Meth 25, 111-122. Furthermore, the peripheral activity was measured. By peripheral activity is meant that the animals are located in the corners of the arena. When the animals are frightened, they have a higher tendency to be located in the corners ie have a high peripheral activity. […]

A further assay concerns Gastrin. As to the kind of experiment: Plasma gastrin determination by immunoassay. Particulars: 1 mg/kg s.c. for five consecutive days, trunk blood four days after end of treatment, mean ± SD, in pmol/L. As to the method:
as §1, §2, §3
(§4) Trunk blood was collected in ice-chilled tubes, containing heparin (10 IU/ml) (Pharmacia-Upjohn, Stockholm, Sweden) and aprotinin (500 IU/ml) (Trasylol, Bayer, Germany). The blood samples were centrifuged and plasma was removed and frozen (−20° C.).
Gastrin was immunoassayed as described by Smedh, U., and Uvnäs-Moberg, K. (1994) Intracerebroventricularly administered corticotropin-releasing factor releases somatostatin through a colinergic, vagal pathway in freely fed rats. Acta Physiol Scand 151, 241-247. […]

Assay [2] relates to male Sprague-Dawley rats. As to the kind of experiment: Measurement of blood pressure with tail cuff on conscious animals. As to conditions: 1 mg/kg s.c. for five consecutive days, two days after last treatment. As to the method: as §1, §2, §3
Blood pressure and heart rate were measured on conscious animals by placing a cuff (Kent RTBP-002, Somedic Sales, Farsta, Sweden) on the base of the tail. The cuff was connected to a Grass 7P8 sphygmanometer and a Grass 7P8DC amplifier with a printer. The rats were habituated to the entire test procedure for 2-3 weeks before the procedure started.

In the next assay the test system is CCK. Put plainly: Plasma cholecystokinin (CCK) determination by immunoassay. Particulars: 1 mg/kg s.c. for five consecutive days, trunk blood four days after end of treatment, mean ± SD, in pmol/L. The protocol:
as §1, §2, §3, §4
CCK was immunoassayed as described by Smedh and Uvnäs Moberg, supra. Plasma samples were purified with reversed-phase chromatography using C18 Waters SEP PAK cartridges. […]

Ends that are not written are not given here.

Regarding “Cys-Pro-Leu-Gly-NH2 (CPLG-NH2) [SEQ ID NO: 5]”, the “Hormone levels in hormone treated rats (N = 6): Oxytocin” value in the assay with Oxytocin is 29.7 ± 7.2. In the assay with male Sprague-Dawley rats [1], the “amount of peripheral activity” value is reported as “decreased”, the amount of rearing result was “significantly decreased” and the locomotor activity entry is given as “significantly decreased”. Moreover, the “Hormone levels in hormone treated rats (N = 6): Gastrin” value in the assay on Gastrin worked out at 85 ± 19.3. Further, in the assay on male Sprague-Dawley rats [2] (mean ± SD), the “Diastolic blood pressure, value in hormone treated rats (N = 6)” value was determined as 87.3 ± 18.9 and the “Systolic blood pressure, value in hormone treated rats (N = 6)” value came to 116 ± 9.1. In addition, in the assay on male Sprague-Dawley rats [2] (vs saline control), the blood pressure result is reported as “significantly decreased”. The “Hormone levels in hormone treated rats (N = 6): CCK” value in the assay on CCK is reported as 8.4 ± 3.5.
